According to patent publication US9615503B2, “Method for cultivating sugar cane” (BASF SE, priority 2011, dated 2017):

Tested on: sugar cane bud discs
Assay: Survival of sugar cane seedlings grown from treated bud discs (greenhouse, then acclimatization)
Format: in vivo
Settings: for Number of surviving seedlings: of 648 planted buds per treatment, bud discs immersed 10 seconds in aqueous solution (pyraclostrobin 1 g/l, fipronil 0.8 g/l, fluxapyroxade 1.2 g/l, thiamethoxam 1.5 g/l), counted after 30 to 45 days greenhouse plus 15 days acclimatization, untreated 211; for Increase of survival rate [%]: relative to untreated buds (211 of 648 surviving), same treatment and concentrations as the number of surviving seedlings
Text: On an area of 0.1 hectares where sugar cane plants were growing with a distance between the rows of 1.5 m, the top part of the 8 months old sugar cane plants was removed by chopping off with a machete in a height of approximately 2 to 2.5 m. The removed top part was discarded. The below, remaining stalks were removed from the field by cutting them off closely above the ground. The stalks were then cut longitudinally into halves in such a manner that the buds were approximately centralized on the halves. From the stalk halves discs of ca. 2 cm of diameter each containing a bud and a part of the respective node were punched off with a punching machine. For each treatment, 648 bud discs were immersed for 10 seconds into an aqueous solution containing either pyraclostrobin (1 g/l; used as the commercial product Comet® of a concentration of 250 g/l of pyraclostrobin) or fipronil (0.8 g/l; used as the commercial product Regent® of a concentration of 800 g/kg of fipronil) or fluxapyroxade (1.2 g/l; used as the commercial product BAS 700 04F of a concentration of 300 g/l) or thiamethoxam (1.5 g/l; used as the commercial product Actara® 250 WG of a concentration of […]). The treated buds were then each placed in individual pots filled with humid coconut fibers. 648 bud discs stayed untreated for comparative reasons and were directly placed in individual pots filled with humid coconut fibers. The pots were placed in a greenhouse, and seedlings were grown from the planted bud discs at 25 to 35° C. and 70 to 80% humidity. While in the greenhouse, the buds/seedlings were watered sufficiently. 30 to 45 days after having been placed in the greenhouse, the surviving seedlings were transferred in an acclimatization area and kept for 15 days. Thereafter they were counted and then transplanted to a field.

COC(=O)N(OC)c1ccccc1COc1ccn(-c2ccc(Cl)cc2)n1 [Pyraclostrobin, pyraclostrobin]
Number of surviving seedlings: 391
Increase of survival rate [%]: 85.3%

N#Cc1nn(-c2c(Cl)cc(C(F)(F)F)cc2Cl)c(N)c1[S+]([O-])C(F)(F)F (centres unmarked) [Fipronil, fipronil]
Number of surviving seedlings: 236
Increase of survival rate [%]: 11.8%

CN1COCN(Cc2cnc(Cl)s2)/C1=N\[N+](=O)[O-] [Thiamethoxam, thiamethoxam]
Number of surviving seedlings: 225
Increase of survival rate [%]: 6.6%

Cn1cc(C(=O)Nc2ccccc2-c2cc(F)c(F)c(F)c2)c(C(F)F)n1 [Fluxapyroxade, N-(3′,4′,5′-trifluorobiphenyl-2-yl)-3-difluoromethyl-1-methyl-1H-pyrazole-4-carboxamide]
Number of surviving seedlings: 248
Increase of survival rate [%]: 17.5%
